Source: the supplement of paper PMC4862054

Experiments:
Conditions in all cases: incubation time: 72 h
MDA-MB-453 [1] = test: normalised response (% of control), CellTox Green; higher = less cell death (100 = DMSO, 0 = benzethonium chloride kill control)
Summary of the method: (§1)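 Normalised signals at single concentrations make up the values. They come from breast cancer cell lines seeded (20 µl suspension) into 384-well plates with compound at 5 concentrations in 10-fold steps over a compound-specific 10,000-fold range, incubated 72 h, and read for CellTox Green fluorescence then CellTiter-Glo luminescence. Each plate was normalised to 0.1 % DMSO (100) and a positive kill control (0).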

MFM-223 [2] = test: as above
Summary of the method: as §1

CAL-85-1 [3] = test: as above
Summary of the method: as §1

BT-549 [4] = test: as above
Summary of the method: as §1

HCC1599 [5] = test: as above
Summary of the method: as §1

BT-474 [6] = test: as above
Summary of the method: as §1

MDA-MB-231 [7] = test: as above
Summary of the method: as §1

HCC1937 [8] = test: as above
Summary of the method: as §1

MDA-MB-436 [9] = test: as above
Summary of the method: as §1

DU-4475 [10] = test: as above
Summary of the method: as §1

CAL-51 [11] = test: as above
Summary of the method: as §1

Hs578T [12] = test: as above
Summary of the method: as §1

HCC1143 [13] = test: as above
Summary of the method: as §1

CAL-120 [14] = test: as above
Summary of the method: as §1

MDA-MB-468 [15] = test: as above
Summary of the method: as §1

MDA-MB-453 [16] = test: normalised response (% of control), CellTiter-Glo; higher = more viable cells (100 = DMSO, 0 = benzethonium chloride kill control)
Protocol: (§2)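 DSRT, 72 h incubation, CellTox Green / CellTiter-Glo readout. Signal is normalised to DMSO and benzethonium chloride controls. Value is the normalised response at the highest dose.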

MFM-223 [17] = test: as above
Protocol: as §2

CAL-85-1 [18] = test: as above
Protocol: as §2

BT-549 [19] = test: as above
Protocol: as §2

HCC1599 [20] = test: as above
Protocol: as §2

BT-474 [21] = test: as above
Protocol: as §2

MDA-MB-231 [22] = test: as above
Protocol: as §2

HCC1937 [23] = test: as above
Protocol: as §2

MDA-MB-436 [24] = test: as above
Protocol: as §2

DU-4475 [25] = test: as above
Protocol: as §2

CAL-148 [26] = test: as above
Protocol: as §2

CAL-51 [27] = test: as above
Protocol: as §2

Hs578T [28] = test: as above
Protocol: as §2

HCC1143 [29] = test: as above
Protocol: as §2

CAL-120 [30] = test: as above
Protocol: as §2

MDA-MB-468 [31] = test: as above
Protocol: as §2

SK-BR-3 [32] = test: as above
Protocol: as §2

HDQ-P1 [33] = test: as above
Protocol: as §2

MCF-10A [34] = test: as above
Protocol: as §2

MDA-MB-453 [35] = test: normalised response (% of control), CellTiter-Glo; higher = more viable cells (100 = DMSO, 0 = benzethonium chloride kill control); remark: listed apart in the source
Summary of the method: as §1

MFM-223 [36] = test: as above; remark: listed apart in the source
Summary of the method: as §1

CAL-85-1 [37] = test: as above; remark: listed apart in the source
Summary of the method: as §1

BT-549 [38] = test: as above; remark: listed apart in the source
Summary of the method: as §1

HCC1599 [39] = test: as above; remark: listed apart in the source
Summary of the method: as §1

BT-474 [40] = test: as above; remark: listed apart in the source
Summary of the method: as §1

MDA-MB-231 [41] = test: as above; remark: listed apart in the source
Summary of the method: as §1

HCC1937 [42] = test: as above; remark: listed apart in the source
Summary of the method: as §1

MDA-MB-436 [43] = test: as above; remark: listed apart in the source
Summary of the method: as §1

DU-4475 [44] = test: as above; remark: listed apart in the source
Summary of the method: as §1

CAL-148 [45] = test: as above; remark: listed apart in the source
Summary of the method: as §1

CAL-51 [46] = test: as above; remark: listed apart in the source
Summary of the method: as §1

Hs578T [47] = test: as above; remark: listed apart in the source
Summary of the method: as §1

HCC1143 [48] = test: as above; remark: listed apart in the source
Summary of the method: as §1

CAL-120 [49] = test: as above; remark: listed apart in the source
Summary of the method: as §1

MDA-MB-468 [50] = test: as above; remark: listed apart in the source
Summary of the method: as §1

SK-BR-3 [51] = test: as above; remark: listed apart in the source
Summary of the method: as §1

HDQ-P1 [52] = test: as above; remark: listed apart in the source
Summary of the method: as §1

MCF-10A [53] = test: as above; remark: listed apart in the source
Summary of the method: as §1

CAL-148 [54] = test: normalised response (% of control), CellTox Green; higher = less cell death (100 = DMSO, 0 = benzethonium chloride kill control)
Summary of the method: as §1

HDQ-P1 [55] = test: as above
Summary of the method: as §1

MCF-10A [56] = test: as above
Summary of the method: as §1

Compound | normalised response (MDA-MB-453 [1]) [%] | normalised response (MFM-223 [2]) [%] | normalised response (CAL-85-1 [3]) [%] | normalised response (BT-549 [4]) [%] | normalised response (HCC1599 [5]) [%] | normalised response (BT-474 [6]) [%] | normalised response (MDA-MB-231 [7]) [%] | normalised response (HCC1937 [8]) [%] | normalised response (MDA-MB-436 [9]) [%] | normalised response (DU-4475 [10]) [%] | normalised response (CAL-51 [11]) [%] | normalised response (Hs578T [12]) [%] | normalised response (HCC1143 [13]) [%] | normalised response (CAL-120 [14]) [%] | normalised response (MDA-MB-468 [15]) [%] | normalised response (MDA-MB-453 [35]) [%] | normalised response (MFM-223 [36]) [%] | normalised response (CAL-85-1 [37]) [%] | normalised response (BT-549 [38]) [%] | normalised response (HCC1599 [39]) [%] | also measured
O=C(O)C(=O)O.[NH-][C@@H]1CCCC[C@H]1[NH-].[Pt+2] [Oxaliplatin] (10000 nM) | 98.6 | 93 | 128 | 108 | 98.3 | 96.6 | 93.5 | 92.8 | 62 | 96.8 | 79.2 | 107 | 68.5 | 99.1 | 124 | – | – | – | – | – | normalised response (MDA-MB-453 [16]): 89.5%; normalised response (MFM-223 [17]): 86.9%; normalised response (CAL-85-1 [18]): 102%; normalised response (BT-549 [19]): 101%; normalised response (HCC1599 [20]): 97.3%; normalised response (BT-474 [21]): 100%; normalised response (MDA-MB-231 [22]): 91.5%; normalised response (HCC1937 [23]): 98.4%; normalised response (MDA-MB-436 [24]): 98.4%; normalised response (DU-4475 [25]): 86.5%; normalised response (CAL-148 [26]): 85.5%; normalised response (CAL-51 [27]): 91.5%; normalised response (Hs578T [28]): 97%; normalised response (HCC1143 [29]): 99.8%; normalised response (CAL-120 [30]): 106%; normalised response (MDA-MB-468 [31]): 97.2%; normalised response (SK-BR-3 [32]): 91.9%; normalised response (HDQ-P1 [33]): 102%; normalised response (MCF-10A [34]): 86.4%
Cc1ccc(-c2cc(C(F)(F)F)nn2-c2ccc(S(N)(=O)=O)cc2)cc1 [Celecoxib] (100 nM) | 104 | 98.7 | 101 | 90.5 | 95.6 | 99.5 | 93.2 | 106 | 71.4 | 101 | 111 | 96.8 | 98.9 | 102 | 89.2 | 110 | 104 | 97.6 | 100 | 98.1 | normalised response (BT-474 [40]): 99%; normalised response (MDA-MB-231 [41]): 101%; normalised response (HCC1937 [42]): 94%; normalised response (MDA-MB-436 [43]): 97.4%; normalised response (DU-4475 [44]): 103%; normalised response (CAL-148 [45]): 95.4%; normalised response (CAL-51 [46]): 110%; normalised response (Hs578T [47]): 111%; normalised response (HCC1143 [48]): 104%; normalised response (CAL-120 [49]): 103%; normalised response (MDA-MB-468 [50]): 98.9%; normalised response (SK-BR-3 [51]): 102%; normalised response (HDQ-P1 [52]): 94.7%; normalised response (MCF-10A [53]): 97.8%; normalised response (CAL-148 [54]): 95.4%; normalised response (HDQ-P1 [55]): 101%; normalised response (MCF-10A [56]): 102%
O=C(O)C1(C(=O)O)CCC1.[NH2-].[NH2-].[Pt+2] [Carboplatin] (100 nM) | 97.6 | 96.8 | 108 | 78.9 | 100 | 103 | 101 | 75.2 | 103 | 105 | 90.7 | 95.5 | 89.6 | 104 | 61.5 | 94.7 | 99.2 | 98 | 93 | 87.6 | normalised response (BT-474 [40]): 102%; normalised response (MDA-MB-231 [41]): 100%; normalised response (HCC1937 [42]): 94.2%; normalised response (MDA-MB-436 [43]): 103%; normalised response (DU-4475 [44]): 99.5%; normalised response (CAL-148 [45]): 102%; normalised response (CAL-51 [46]): 93.7%; normalised response (Hs578T [47]): 99.9%; normalised response (HCC1143 [48]): 101%; normalised response (CAL-120 [49]): 99.1%; normalised response (MDA-MB-468 [50]): 93.9%; normalised response (SK-BR-3 [51]): 105%; normalised response (HDQ-P1 [52]): 99%; normalised response (MCF-10A [53]): 107%; normalised response (CAL-148 [54]): 103%; normalised response (HDQ-P1 [55]): 88.8%; normalised response (MCF-10A [56]): 86.2%
C=CC(=O)Nc1cc2c(Nc3ccc(F)c(Cl)c3)ncnc2cc1OCCCN1CCOCC1 [Canertinib] (100 nM) | 102 | 99.3 | 72.3 | 75.7 | 114 | 84.4 | 107 | 108 | 107 | 105 | 98.2 | 109 | 94.3 | 97.6 | 136 | 91.9 | 99.1 | 69.1 | 93.9 | 85.5 | normalised response (BT-474 [40]): 95.3%; normalised response (MDA-MB-231 [41]): 103%; normalised response (HCC1937 [42]): 84.5%; normalised response (MDA-MB-436 [43]): 96.6%; normalised response (DU-4475 [44]): 102%; normalised response (CAL-148 [45]): 97.5%; normalised response (CAL-51 [46]): 60.2%; normalised response (Hs578T [47]): 97.4%; normalised response (HCC1143 [48]): 95.7%; normalised response (CAL-120 [49]): 99.5%; normalised response (MDA-MB-468 [50]): 76.6%; normalised response (SK-BR-3 [51]): 46.4%; normalised response (HDQ-P1 [52]): 70.9%; normalised response (MCF-10A [53]): 43.9%; normalised response (CAL-148 [54]): 104%; normalised response (HDQ-P1 [55]): 51.8%; normalised response (MCF-10A [56]): 106%
C=CCc1cccc(/C=N/NC(=O)CN2CCN(Cc3ccccc3)CC2)c1O [PAC-1] (100 nM) | 107 | 98.7 | 99.7 | 101 | 99.4 | 103 | 116 | 105 | 83.5 | 102 | 98.2 | 84.3 | 110 | 106 | 79.1 | 102 | 102 | 103 | 104 | 118 | normalised response (BT-474 [40]): 102%; normalised response (MDA-MB-231 [41]): 107%; normalised response (HCC1937 [42]): 97.1%; normalised response (MDA-MB-436 [43]): 99.3%; normalised response (DU-4475 [44]): 105%; normalised response (CAL-148 [45]): 103%; normalised response (CAL-51 [46]): 91.8%; normalised response (Hs578T [47]): 104%; normalised response (HCC1143 [48]): 101%; normalised response (CAL-120 [49]): 103%; normalised response (MDA-MB-468 [50]): 99.4%; normalised response (SK-BR-3 [51]): 108%; normalised response (HDQ-P1 [52]): 99.6%; normalised response (MCF-10A [53]): 111%; normalised response (CAL-148 [54]): 107%; normalised response (HDQ-P1 [55]): 100%; normalised response (MCF-10A [56]): 75.2%
